According to patent publication US7622611B2, “Pentafluorosulfanylbenzoylguanidines, process for their preparation, use as a medicament or diagnostic aid, and medicament comprising same” (Sanofi-Aventis Deutschland GmbH, priority 2003, dated 2009):
pIC50: −log10 of the molar value.

Legend:
human NHE-1 = target: T1, human NHE-1 (Homo sapiens, UniProt P19634); assay: NHE-1 inhibition, FLIPR assay measuring pHi recovery in transfected cell lines; assay type: cell-based; conditions: transfected LAP-1 cell line expressing human NHE-1, BCECF pHi recovery, read-out: NHE1 inhibition IC50
T1 construct: expressed in transfected cells; host or cells: LAP-1 (parental line without endogenous NHE activity), G418 selection
Description: The inhibitory concentration IC50 for NHE-1 inhibition was determined as follows:
IC50 for NHE-1 inhibition was determined in an FLIPR assay by measurement of the pHi recovery in transfected cell lines which express human NHE-1.
The assay was carried out in an FLIPR (fluorometric imaging plate reader) with black-walled 96-well microtiter plates with clear bases.
The growth medium for the transfected cells (Iscove+10% fetal calf serum) additionally contained G418 as selection antibiotic in order to ensure the presence of the transfected sequences.
The actual assay started with the removal of the growth medium and addition of 100 μl of loading buffer per well (5 μM BCECF-AM [2′,7′-bis(carboxyethyl)-5-(and -6-)carboxyfluorescein, acetoxymethyl ester] in 20 mM NH4Cl, 115 mM choline chloride, 1 mM MgCl2, 1 mM CaCl2, 5 mM KCl, 20 mM HEPES, 5 mM glucose; pH 7.4 [adjusted with KOH]). The cells were then incubated at 37° C. for 20 minutes. This incubation led to loading of the cells with the fluorescent dye whose fluorescence intensity depends on pHi, and with NH4Cl that made the cells slightly alkaline.
The nonfluorescent dye precursor BCECF-AM is, as ester, membrane-permeable. The actual dye BCECF is not membrane-permeable but is liberated inside cells by esterases. […]

[1] = In vivo pharmacokinetics, profiling with the "n in one method" in beagle dog; conditions: for Volume of distribution: fasting male beagle dog, single i.v. bolus into jugular vein, about 1 mg/kg, both substances given together
Description: In vivo pharmacokinetics—profiling with the “n in one method”
The exposure data and the volumes of distribution were determined as characteristic pharmacokinetic data as follows:
The NHE-1 inhibitor of example 1 of the invention and, as reference substance, the known NHE-1 inhibitor cariporide with formula
[drawing 23] were dissolved in an aqueous, slightly acidic medium (water, pH 4, adjusted with 1M hydrochloric acid). The concentration of the aqueous formulation prepared in this way was about 1.5 mg of each substance per 1 g of solution. 10 ml of this formulation were administered as a single bolus by catheter into the jugular vein of a fasting male beagle dog (dose about 1 mg of each substance administered per kg of the dog's body weight). Blood samples were taken by means of a second catheter after 5 min, 15 min, 30 min, 1 h, 2 h, 4 h, 8 h and 24 h, and heparinized plasma was prepared by centrifugation at 1000 G in appropriate plasma tubes.
The plasma samples were worked up and, after an HPLC separation, quantified by MS/MS. The high specificity of this method permitted simultaneous determination of a plurality of substances. The exposures could be calculated using the WinNonlin computer program from the concentration-time plots (see FIG. 1) and compared with the exposure of the known NHE-1 reference substance. Since the various substances were measured in the same animal at the same time, the result was an accurate comparison of the compounds, and a ranking of the volumes of distribution was possible.
FIG. 1: concentration-time plots in the blood plasma of dogs after administration of in each case approx. 1 mg/kg of the compound of example 1 and of cariporide.

T1 sequence (P19634 whole entry): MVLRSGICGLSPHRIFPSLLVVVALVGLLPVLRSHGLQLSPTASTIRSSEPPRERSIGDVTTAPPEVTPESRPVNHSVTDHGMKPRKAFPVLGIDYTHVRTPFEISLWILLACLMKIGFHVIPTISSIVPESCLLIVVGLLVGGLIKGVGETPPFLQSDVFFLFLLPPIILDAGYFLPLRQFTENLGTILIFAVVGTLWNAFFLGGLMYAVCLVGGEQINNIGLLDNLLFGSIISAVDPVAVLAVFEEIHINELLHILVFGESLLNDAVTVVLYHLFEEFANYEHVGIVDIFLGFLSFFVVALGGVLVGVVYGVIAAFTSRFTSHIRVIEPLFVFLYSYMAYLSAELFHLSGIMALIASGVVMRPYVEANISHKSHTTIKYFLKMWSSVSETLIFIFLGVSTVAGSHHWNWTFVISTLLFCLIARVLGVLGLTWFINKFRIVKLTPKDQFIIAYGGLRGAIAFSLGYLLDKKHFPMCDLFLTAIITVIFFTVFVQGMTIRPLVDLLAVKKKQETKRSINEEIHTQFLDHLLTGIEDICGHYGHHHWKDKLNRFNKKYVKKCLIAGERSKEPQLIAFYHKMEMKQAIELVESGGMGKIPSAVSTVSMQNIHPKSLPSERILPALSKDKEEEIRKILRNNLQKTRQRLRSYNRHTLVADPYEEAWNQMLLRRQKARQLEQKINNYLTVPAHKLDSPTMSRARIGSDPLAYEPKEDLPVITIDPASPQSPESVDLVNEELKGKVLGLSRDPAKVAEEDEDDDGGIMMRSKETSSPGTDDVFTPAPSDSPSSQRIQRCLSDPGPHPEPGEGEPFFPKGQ

Row | pIC50 (human NHE-1) | Exposure relative to reference substance cariporide (times higher) ([1]; dog plasma, about 1 mg/kg i.v., from concentration-time plots, FIG. 1) | Volume of distribution [1] | melting point [°C] | Detectability in plasma after 24 hours ([1]; dog plasma, 24 h after about 1 mg/kg i.v.) | Structure (SMILES)
1 | 7.31 | 2-3 times | 1.67 l/kg of body weight | 254 to 256 |  | Cc1cc(S(F)(F)(F)(F)F)c(S(C)(=O)=O)cc1C(=O)N=C(N)N [Example 1, N-(5-Methanesulfonyl-2-methyl-4-pentafluorosulfanylbenzoyl)guanidine]
2 |  |  | 2.94 l/kg of body weight |  | no longer detectable | CC(C)c1ccc(C(=O)N=C(N)N)cc1S(C)(=O)=O.CS(=O)(=O)O [cariporide, reference compound]
